{"source": "patent US20220125093A1", "about": "“NUTRITIONAL SUPPLEMENTS INCLUDING MEAL REPLACEMENTS AND RELATED METHODS” (Ohio State Innovation Foundation, priority 2012, published 2022)", "key": {"[1]": {"conditions": "single dose of zinc, healthy young adult women, blood at 0, 1, 2, 3 and 4 hours", "excerpt": "Zinc glycinate has not been studied at all in people who have had bariatric surgery. Furthermore, in published studies on any types of people, zinc glycinate has not been compared much to other forms of zinc. Thus, an unpublished comparative study was done in healthy young adult women that compared zinc glycinate to two other forms of zinc. The study utilized an indirect approach of absorption. In this approach, a single dose of zinc was given to young adult women; blood was taken at 0, 1, 2, 3, and 4 hours. Both plasma and red blood cells (erythrocytes) were analyzed for zinc and for each, an area under the curve graph was calculated for zinc content versus time."}, "[2]": {"experiment": "Iron status as ferritin/CRP ratio after bariatric surgery", "format": "in vivo, human", "conditions": "added to meal replacement product, same amount of iron for each group", "excerpt": "Design. Young adult females who were about to have bariatric surgery were recruited. Blood and urine samples were taken before surgery and 6 weeks later. People were divided into two groups. One group drank 2 servings per day of the new product related to this patent (N=12) for 6 weeks. The other group drank 2 servings of a current meal replacement product and also took other supplements including sublingual vitamin B12. The new product had the B12 put right in the meal replacement product. The vitamin is put in the product at a daily dose that is very high relative to normal recommendations, and high relative to what was used for injections or sublingual administration. Also, a coenzyme form of the vitamin was used in the meal replacement product.\nIron status was measured as ferritin/CRP ratios (ferritin reflects iron status but can also be influenced by inflammation; CRP only reflects inflammation)."}}}
{"molecule": "NCC(=O)[O-].NCC(=O)[O-].[Zn+2]", "note": "[Zinc glycinate, zinc glycinate]", "values": [{"measurement": "erythrocyte (red blood cell) zinc area under the curve", "setting": "[1]", "value": "outperformed zinc oxide and gluconate"}, {"measurement": "plasma zinc area under the curve", "setting": "[1]", "value": "outperformed zinc oxide and gluconate"}]}
{"molecule": "Iron Glycinate Chelate", "values": [{"measurement": "iron status (ferritin/CRP ratios)", "setting": "[2]", "value": "improved iron status to about the same degree as a conventional bariatric meal replacement product+iron lozenges"}]}
